Laboratory results as given in paper PMC3690454, “14-3-3 Proteins Interact with a Hybrid Prenyl-Phosphorylation Motif to Inhibit G Proteins” (Cell, 2013).
Square brackets hold non-standard residues; d marks the D form. Ends that are not written are not given here. Peptide text beside a SMILES is read from it. * marks the point of attachment. Geranylgeranyl = CC(C)=CCC/C(C)=C/CC/C(C)=C/CC/C(C)=C/C*; Biotin = O=C1N[C@H]2[C@H](CS[C@H]2CCCCC(=O)*)N1; Farnesyl = CC(C)=CCC/C(C)=C/CC/C(C)=C/C*; pT = C[C@@H](OP(=O)(O)O)[C@H](N)C(=O)O; pS = N[C@@H](COP(=O)(O)O)C(=O)O; X1 = CC(C)=CCC/C(C)=C/C*; Ahx = NCCCCCC(=O)O; Prenyl = CC(C)=CC*

What was measured:
[1] = biological target: T1, 14-3-3ζ (Homo sapiens, UniProt P63104); experiment: Biolayer interferometry (Octet RED96), immobilised biotinylated peptides, 14-3-3ζ in solution; format: binding; conditions: for Kd: kinetic fit, peptide immobilised at 1 μg/ml, 25 mM Tris, 150 mM NaCl, 0.1% Tween-20, association 300 s, dissociation 300 s, NB = no binding; for Kd / koff / kon: typical experiment (n ≥ 3)
T1 construct: hexa-His; made in house; host or cells: E. coli BL21(DE3) Star
T1 sequence (P63104 1-245): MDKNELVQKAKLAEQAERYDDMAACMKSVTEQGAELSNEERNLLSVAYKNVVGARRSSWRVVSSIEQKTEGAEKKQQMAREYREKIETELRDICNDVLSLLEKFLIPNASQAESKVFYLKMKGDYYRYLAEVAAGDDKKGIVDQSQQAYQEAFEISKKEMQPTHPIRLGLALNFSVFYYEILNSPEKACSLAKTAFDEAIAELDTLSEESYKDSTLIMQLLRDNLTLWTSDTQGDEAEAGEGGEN
Method: (§1) Biolayer interferometry was carried out using an Octet RED96 instrument (ForteBio). Biotinylated peptides were immobilized on streptavadin-coated biosensors (ForteBio) at a concentration of 1 μg/ml in BI buffer (25 mM Tris, 150 mM NaCl, 0.1% Tween-20), for 300 s. The immobilization typically reached a response level of 2 nm. Association and dissociation curves were obtained through addition of a dilution series of 14-3-3ζ ([…]) for 300 s followed by dissociation in BI buffer for 300 s using the Octet acquisition software. The binding data were fitted using the Octet analysis software.

[2] = biological target: T2, 14-3-3δ (Homo sapiens, UniProt P63104); experiment: Biolayer interferometry (Octet Red96) of candidate protein C-terminal peptides, Table S5; format: binding; conditions: for affinity for 14-3-3 (in words): compared with farnesylated or geranylgeranylated Rnd3 peptides; for koff: typical experiment (n ≥ 3)
T2 construct: hexa-His; made in house; host or cells: E. coli BL21(DE3) Star
T2 sequence (P63104 1-245): T1 sequence (P63104 1-245)
Method: as §1
Table S5. Interactions of C-Terminal Peptides from Candidate Proteins with 14-3-3, […]
The affinities of the indicated phosphorylated and geranylgeranylated peptides for 14-3-3δ were determined by biolayer interferometry using an Octet Red96 instrument. Data of a typical experiment (n ≥ 3) along with statistics of the fit (χ2, R2) are shown. Peptide sequences from the C-terminus of the indicated proteins (last 10 amino acids of the mature protein sequence, terminating with Cys of CAAX box) are shown in single letter amino acid code, with pS/pT denoting phosphorylated serine/threonine. The modifications added to the C-terminal Cys are indicated. GG, geranylgeranylated; KD, dissociation constant; kon, association rate constant; koff, dissocation rate constant.

[3] = biological target: T1, 14-3-3ζ; experiment: Isothermal titration calorimetry of Rnd3 C-terminal peptides with 14-3-3ζ; format: binding; conditions: ITC
Method: ITC measurements were carried out using a VP-ITC200 instrument (GE Healthcare). The 14-3-3ζ domain (see Extended Experimental Procedures) was used at 50–60 μM in ITC buffer (50 mM Tris [pH 7.5]), 100 mM NaCl, 1 mM TCEP). Rnd3 C-terminal peptides were solubilized in ITC buffer and used at 500–600 μM. Titrations were carried out at 25°C in triplicate. Each titration was fitted to a simple one-site binding model using the Origin software provided with the instrument. Titrations with nonbinding peptides were carried out at 15°C and 25°C.
GST-14-3-3β protein was expressed as previously reported ([Yaffe et al., 1997]). A hexa-His-tagged version of 14-3-3ζ was expressed and purified essentially as previously reported ([Kostelecky et al., 2009]). In brief, the E. coli strain BL21(DE3) Star (Invitrogen) was transformed with the expression plasmid that was maintained by 34 μg/ml chloramphenicol. E. coli cells were grown to OD600nm of 0.7-0.8 in TB medium at 37°C and protein expression induced by 1 mM IPTG for 5 hr at 30°C. Pelleted cells were suspended in buffer A (25 mM Tris [pH 7.5], 100 mM NaCl, 1 mM EDTA, and 1 mM DTT) and disrupted by sonication. Insoluble material was cleared by high-speed centrifugation and the cleared lysate applied to a 5 ml HisTrap column using an AKTA system (GE Healthcare). The 14-3-3ζ protein was eluted with a linear gradient (0–500 mM) of Imidazole in buffer A. Finally, the protein was subjected to size-exclusion chromatography using a High-Load S200 pg column. As previously described, 14-3-3ζ eluted as a dimer with a molecular weight of ∼60 kDa. The final yield of 14-3-3ζ was 30–40 mg per liter of TB medium.

[4] = biological target: hexa-His-tagged 14-3-3ζ (UniProt P63104); experiment: ITC; VP-ITC200; 14-3-3ζ at 50–60 μM, Rnd3 peptides at 500–600 μM; 50 mM Tris pH 7.5, 100 mM NaCl, 1 mM TCEP; 25°C, one-site model; non-binding peptides at 15°C and 25°C
[5] = biological target: T3, hexa-His-tagged 14-3-3ζ (UniProt P63104 1-245); experiment: BLI; Octet RED96; biotinylated peptides immobilised on streptavidin-coated biosensors (1 μg/ml, 300 s); dilution series of 14-3-3ζ for 300 s, dissociation 300 s; BI buffer 25 mM Tris, 150 mM NaCl, 0.1% Tween-20; data of a typical experiment (n ≥ 3); conditions: both partners purified
T3 construct: 14-3-3 protein zeta; expressed and purified essentially as in Kostelecky et al., 2009; eluted as a dimer of ~60 kDa; the ITC methods call it 'the 14-3-3ζ domain'; source: E. coli BL21(DE3) Star, purified (HisTrap, size-exclusion chromatography)
T3 sequence: T1 sequence (P63104 1-245)

With `CC(C)=CCSC[C@H](NC(=O)[C@H](COP(=O)(O)O)NC(=O)[C@H](CCCCN)NC(=O)[C@H](C)NC(=O)[C@H](CCCCN)NC(=O)[C@H](CC(=O)O)NC(=O)[C@H](CCCCN)NC(=O)[C@H](CCCNC(=N)N)NC(=O)[C@H](CC(C)C)NC(=O)[C@H](CC(=O)O)NC(=O)CCCCCNC(=O)CCCC[C@@H]1SC[C@@H]2NC(=O)N[C@@H]21)C(=O)O` [+P+Ipr] ({Biotin-Ahx}-DLRKDKAK[pS]C(Prenyl)-OH) the “fold lower affinity for 14-3-3 compared to Rnd3 peptides with two, three and four isoprenyl groups” value [1] was “approximately 10 fold”, the Kd [1] was 0.556 µM and the koff [1] was 0.13 s⁻¹. The kon [1] was 240000 M⁻¹ s⁻¹.

For `CC[C@H](C)[C@H](NC(=O)[C@@H]1CCCN1C(=O)[C@@H](NC(=O)[C@@H]1CCCN1C(=O)CCCCCNC(=O)CCCC[C@@H]1SC[C@@H]2NC(=O)N[C@@H]21)[C@@H](C)O)C(=O)N[C@@H](CCCCN)C(=O)N[C@@H](CCCNC(=N)N)C(=O)NCC(=O)N[C@@H](CCCNC(=N)N)C(=O)N[C@@H](COP(=O)(O)O)C(=O)N[C@@H](CSC/C=C(\C)CC/C=C(\C)CC/C=C(\C)CCC=C(C)C)C(=O)O` [RhoG] ({Biotin-Ahx}-PTPIKRGR[pS]C(Geranylgeranyl)-OH), the “affinity for 14-3-3 (in words)” value [2] was “lower affinity” and the koff [2] was 0.035 s⁻¹.

Molecule `CC(C)=CCC/C(C)=C/CC/C(C)=C/CSC[C@H](NC(=O)[C@H](COP(=O)(O)O)NC(=O)[C@H](CCCCN)NC(=O)[C@H](C)NC(=O)[C@H](CCCCN)NC(=O)[C@H](CC(=O)O)NC(=O)[C@H](CCCCN)NC(=O)[C@H](CCCNC(=N)N)NC(=O)[C@H](CC(C)C)NC(=O)[C@@H](N)CC(=O)O)C(=O)O` [+P+F] (H-DLRKDKAK[pS]C(Farnesyl)-OH) has a Kd ([3]; 25°C, 50 mM Tris pH 7.5, 100 mM NaCl, 1 mM TCEP, one-site model, mean ± SD, n = 3) of 0.069 ± 0.025 µM, a Kd [1] of 0.0324 µM and a koff [1] of 0.028 s⁻¹. For the same molecule, the kon [1] was 860000 M⁻¹ s⁻¹.

For `CC(C)=CCC/C(C)=C/CC/C(C)=C/CC/C(C)=C/CSC[C@H](NC(=O)[C@@H](NC(=O)[C@H](CCCCN)NC(=O)[C@H](CO)NC(=O)[C@H](CCCCN)NC(=O)[C@H](CCCCN)NC(=O)[C@H](CC(=O)O)NC(=O)[C@H](CC(=O)O)NC(=O)CNC(=O)CNC(=O)CCCCCNC(=O)CCCC[C@@H]1SC[C@@H]2NC(=O)N[C@@H]21)[C@@H](C)OP(=O)(O)O)C(=O)O` [PDE6C] ({Biotin-Ahx}-GGDDKKSK[pT]C(Geranylgeranyl)-OH), the koff [2] was 0.018 s⁻¹.

In the case of “biotinylated Rnd3 C-terminal peptide, phosphorylated on S240 and farnesylated on C241 (+P+F)”, the dH [4] is reported as -12.4 kJ/mol and the stoichiometry N [4] is reported as 0.83.

With “Rap1A+P-GG: phosphorylated Rap1A peptide without the geranylgeranyl modification (EKKKPKKK[pS]C; not fully specified (N-terminus); also: biotinylated)” the “affinity for 14-3-3ζ (in words)” value ([1]; Figure 7C) was “micromolar affinity”.

`CC(C)=CCC/C(C)=C/CC/C(C)=C/CC/C(C)=C/CSC[C@H](NC(=O)[C@H](COP(=O)(O)O)NC(=O)[C@H](CCCCN)NC(=O)[C@H](C)NC(=O)[C@H](CCCCN)NC(=O)[C@H](CC(=O)O)NC(=O)[C@H](CCCCN)NC(=O)[C@H](CCCNC(=N)N)NC(=O)[C@H](CC(C)C)NC(=O)[C@H](CC(=O)O)NC(=O)CCCCCNC(=O)CCCC[C@@H]1SC[C@@H]2NC(=O)N[C@@H]21)C(=O)O` [+P+GG] ({Biotin-Ahx}-DLRKDKAK[pS]C(Geranylgeranyl)-OH) gave a Kd [1] of 0.0232 µM, a koff [1] of 0.021 s⁻¹ and a kon [1] of 890000 M⁻¹ s⁻¹.

DLRKDKAKSC-OH [−P-F] was tested, and the “binding to 14-3-3ζ (in words)” value ([3]; tested at 15°C and 25°C) was “no binding” and the Kd [1] was > 4 µM.

Molecule “biotinylated Rnd3 C-terminal peptide, phosphorylated on S240 (+P−F)” has a dH [4] of -23.8 kJ/mol and a stoichiometry N [4] of 0.89.

`CC(C)=CCC/C(C)=C/CC/C(C)=C/CC/C(C)=C/CSC[C@H](NC(=O)[C@H](COP(=O)(O)O)NC(=O)[C@H](CCCCN)NC(=O)[C@H](CO)NC(=O)[C@H](CCCNC(=N)N)NC(=O)[C@H](CCCNC(=N)N)NC(=O)[C@H](CCC(=O)O)NC(=O)[C@@H](NC(=O)[C@H](CC(N)=O)NC(=O)[C@@H](NC(=O)CCCCCNC(=O)CCCC[C@@H]1SC[C@@H]2NC(=O)N[C@@H]21)[C@@H](C)O)[C@@H](C)O)C(=O)O` [RPRG] ({Biotin-Ahx}-TNTERRSK[pS]C(Geranylgeranyl)-OH) was tested, and the “affinity for 14-3-3 (in words)” value [2] was “intermediate affinity” and the koff [2] was 0.022 s⁻¹.

In the case of `CC(C)=CCC/C(C)=C/CSC[C@H](NC(=O)[C@H](COP(=O)(O)O)NC(=O)[C@H](CCCCN)NC(=O)[C@H](C)NC(=O)[C@H](CCCCN)NC(=O)[C@H](CC(=O)O)NC(=O)[C@H](CCCCN)NC(=O)[C@H](CCCNC(=N)N)NC(=O)[C@H](CC(C)C)NC(=O)[C@H](CC(=O)O)NC(=O)CCCCCNC(=O)CCCC[C@@H]1SC[C@@H]2NC(=O)N[C@@H]21)C(=O)O` [+P+G] ({Biotin-Ahx}-DLRKDKAK[pS]C(X1)-OH), the Kd [1] is reported as 0.0565 µM, the koff [1] is reported as 0.032 s⁻¹ and the kon [1] is reported as 570000 M⁻¹ s⁻¹.

In the case of `CC(C)=CCC/C(C)=C/CC/C(C)=C/CC/C(C)=C/CSC[C@H](NC(=O)[C@H](COP(=O)(O)O)NC(=O)[C@H](CO)NC(=O)[C@H](CCCCN)NC(=O)[C@H](CCCCN)NC(=O)[C@H](CCCNC(=N)N)NC(=O)[C@H](C)NC(=O)[C@H](CCCCN)NC(=O)CNC(=O)[C@@H]1CCCN1C(=O)CCCCCNC(=O)CCCC[C@@H]1SC[C@@H]2NC(=O)N[C@@H]21)C(=O)O` [Rap1B] ({Biotin-Ahx}-PGKARKKS[pS]C(Geranylgeranyl)-OH), the “affinity for 14-3-3 (in words)” value [2] is reported as “lower affinity” and the koff [2] is reported as 0.055 s⁻¹.

In the case of {Biotin-Ahx}-PTPIKRGR[pS]C(Geranylgeranyl) (source: synthetic peptide), the Kd [5] is reported as 0.868 µM and the kon [5] is reported as 41000 M⁻¹ s⁻¹.

B1: RPGR C-terminal peptide, phosphorylated and geranylgeranylated (N-Bio-Eahx-TNTERRSKpSC(S-geranylgeranyl)-C) (peptide)
peptide: {Biotin-Ahx}-TNTERRSK[pS]C(Geranylgeranyl)
notes: also called RPRG; source: synthetic peptide
Work on B1 yielded a Kd [5] of 0.095 µM, a koff [5] of 0.022 s⁻¹ and a kon [5] of 240000 M⁻¹ s⁻¹.

{Biotin-Ahx}-GGDDKKSK[pT]C(Geranylgeranyl) (source: synthetic peptide) was tested, and the Kd [5] was 0.0445 µM and the kon [5] was 410000 M⁻¹ s⁻¹.

Molecule {Biotin-Ahx}-PGKARKKS[pS]C(Geranylgeranyl) (source: synthetic peptide) has a Kd [5] of 0.17 µM and a kon [5] of 320000 M⁻¹ s⁻¹.

B2: Rap1A C-terminal peptide, phosphorylated and geranylgeranylated (N-Bio-Eahx-EKKKPKKKpSC(S-geranylgeranyl)-C) (peptide)
peptide: {Biotin-Ahx}-EKKKPKKK[pS]C(Geranylgeranyl)
notes: also called Rap1A+P+GG; source: synthetic peptide
Work on B2 yielded a Kd [5] of 0.0236 µM, a koff [5] of 0.034 s⁻¹ and a kon [5] of 1.4e+06 M⁻¹ s⁻¹.
